Measured values taken from publication PMC5354456, “Selective inhibition of RNA polymerase I transcription as a potential approach to treat African trypanosomiasis” (PLoS Neglected Tropical Diseases, 2017).
Entries after “also recorded” stand apart in the source; their conditions may differ.

Columns and labels:
[1] = system: bloodstream form Trypanosoma brucei; assay: Alamar Blue in vitro cytotoxicity assay, T. brucei SM; type: cell-based; conditions: for IC50: 72 hour Alamar Blue, mean ± SD, three biological replicates; for T. brucei more sensitive than human cells (selectivity range): compared with MCF10A and BJ3 human cell lines
Description: (§1) For proliferation assays, T. brucei SM was treated with inhibitors, and densities were determined using a Neubauer haemocytometer. Growth curves were repeated minimally in triplicate. For wash-out assays, T. brucei SM was treated with various concentrations of inhibitors. After two hours the cells were washed, resuspended in drug free HMI-9 medium, and cell proliferation was monitored using a haemocytometer. For the Alamar Blue in vitro cytotoxicity assay, 200 μl samples of T. brucei SM cells (2 x 10^3 cells ml^-1) were plated in 96 well plates, and incubated for 72 hours with two fold serial dilutions of the inhibitors. At 72 hours, 20 μl of Resazurin (0.125 mg ml^-1) (Sigma) was added, and the parasites were incubated for a further 18 hours. Fluorescence was measured using a Tecan infinite plate reader (excitation at 530 nm, emission at 585 nm). The change in fluorescence (minus the chemical only control) was plotted as a function of the concentration of chemical compound using the sigmoidal dose-response (variable slope) algorithm using GraphPad Prism version 5.

[2] = system: MCF10A human breast epithelial cell line; assay: Alamar Blue cytotoxicity assay, MCF10A cells; type: cell-based; conditions: for T. brucei more sensitive than MCF10A: Alamar Blue IC50s compared; for IC50: 72 hour Alamar Blue, mean ± SD; for selectivity index for T. brucei vs MCF10A (Alamar blue): IC50 MCF10A Alamar blue / IC50 T. brucei
Description: (§2) For the mammalian cell toxicity assays, either the spontaneously immortalised Michigan Cancer foundation (MCF10A) human breast epithelial cell line was used, or the BJ3 cell line, which is a human foreskin fibroblast cell line immortalized with the h-Tert catalytic subunit of telomerase. Cells were seeded in 96-well plates, and after 48 hours each well was treated in quintuplicate using ten different concentrations of CX-5461, quarfloxin, BMH-21 or suramin. After incubation for 48 hours, the cells were imaged and cell confluence was calculated using an IncuCyte ZOOM (Essen Biosciences). Cell confluence was normalised to a drug vehicle only control which was set to 100%. An Alamar Blue assay was also performed on the MCF10A cell line in the presence of the different Pol I transcription inhibitors. Here the Alamar Blue readout was also normalised to the vehicle only control. Experiments were performed as three biological replicates with the exception of the Incucyte data for MCF10A in the presence of BMH-21 and doxycycline which were obtained in duplicate. The dose response curves and IC50s were calculated using GraphPad Prism.

[3] = system: BJ3 human foreskin fibroblast cell line; assay: IncuCyte cell confluence assay, BJ3 fibroblasts; type: cell-based; conditions: for IC50: 48 hours IncuCyte, IC50 for cell death, mean ± SD; for selectivity index for T. brucei vs BJ3 human fibroblasts (Incucyte): IC50 BJ3 cell death / IC50 T. brucei
Description: as §2
In parallel, the BJ3 human foreskin fibroblast cell line that had been immortalised with hTert (the catalytic subunit of telomerase) was also tested for sensitivity to these compounds [46] (S2 Fig)(S3 Fig). The IC50 values corresponding to either growth arrest or cell death shown in S2 Fig were obtained by observing the cell images (S3 Fig) and determining the point where the specific dose curve plateaus at the higher concentrations. If the cells were morphologically sound, then the dose curve represented growth arrest of the cells. If the cells were dead, then the dose curve represented cell death. The IC50 values for cell death were used to calculate the selectivity index scores.

[4] = system: MCF10A human breast epithelial cell line; assay: IncuCyte cell confluence proliferation assay, MCF10A cells; type: cell-based; conditions: for IC50: 48 hour IncuCyte, mean ± SD; for selectivity index for T. brucei vs MCF10A (Incucyte): IC50 MCF10A Incucyte / IC50 T. brucei
Description: as §2

T. brucei SM [5] = assay: Proliferation assay (growth curves, haemocytometer); type: cell-based, Trypanosoma brucei; conditions: growth over 48 hours
Description: as §1

T. brucei SM [6] = assay: Wash-out assay; type: cell-based, Trypanosoma brucei; conditions: two hours incubation, then wash-out
Description: as §1

[7] = system: Pol I transcription (rDNA and VSG221 ES precursor transcripts); assay: RNA precursor transcript analysis by qRT-PCR; type: cell-based, Trypanosoma brucei
Description: RNA transcript analysis was performed using quantitative reverse transcription PCR (qRT-PCR). Total RNA was isolated using the RNeasy kit (Qiagen) and DNase treated with TURBO DNA-free kit (Invitrogen). Reverse transcription was performed using 100 ng RNA as a template for cDNA synthesis using random hexamer primers (Promega) and the Omniscript RT kit (Qiagen). qPCR was performed on the 7500 Fast Real-Time PCR system (Life Technologies) using Brilliant II SYBR Green QPCR Low ROX Master Mix (Agilent Technologies). DNase treated RNA without reverse transcriptase was used as a control. The amplification conditions for each primer pair were optimised, and the primer sequences are listed in S1 Table. Transcript levels were normalised against actin mRNA, and plotted as relative change relative to the zero hour time point.

[8] = system: Expression Site Body (ESB) and nucleolus of T. brucei; assay: Immunofluorescence microscopy of ESB, VEX1 foci and nucleolus; type: cell-based, Trypanosoma brucei; conditions: for ESB positive cells / cells with an ESB: one hour, G1 cells, untreated 64 ± 17%
Description: Trypanosomes were fixed in 2% paraformaldehyde, permeabilised with 0.1% NP-40 for 5 minutes at room temperature before incubation for one hour with an antibody against the nucleolar marker L1C6 [47] or anti-myc tag antibody (clone 4A6, EMD Millipore). Slides were subsequently incubated with a goat anti-mouse secondary antibody coupled to Alexa-594 (Molecular Probes), before mounting in Vectashield containing DAPI (Vector Laboratories). Microscopy was performed using a Zeiss Imager.M1 microscope equipped with a Zeiss AxioCam MRm camera and Axio Vision Rel 4.8 software. A Z-stack of images was taken at 200 nm intervals, and the images from the individual channels were processed using Image J software. For quantitation of ESB signal using YFP, VEX1 signal using the anti-myc tag antibody or nucleolar signal using the L1C6 antibody, the exposure time and contrast was uniformly adjusted across all conditions. Quantification of ESB and nucleolar signal was carried out using compressed stacks of all appropriate channels in which the images acquired on the Z-axis were analysed. The ESB and nucleolar status was recorded for a total of approximately 100 cells in G1 (two biological replicates of approximately 50 cells) for each condition.

[9] = system: T. brucei RPA2 Pol I subunit; assay: Western blot of YFP-RPA2 Pol I subunit; type: cell-based, Trypanosoma brucei; conditions: 3 μM, one hour, T. brucei TY-YFP-RPA2
Description: (A) The T. brucei TY-YFP-RPA2 cell line was incubated with various concentrations of BMH-21 for the time indicated in hours. As a control, T. brucei was also incubated with 800 nM of suramin. Lysate from 1 x 10^7 cell equivalents was blotted and probed with anti-TY (BB2) antibody. A band corresponding to T. brucei RPA2 is shown, as well as a Ponceau S stain of the blot to serve as a loading control. Size markers in kiloDaltons (kDa) are indicated. (TIF) Click here for additional data file.

T. b. rhodesiense = system: T. b. rhodesiense; design: method as in PMID 20149544; conditions: similar Alamar Blue assay; read-out: IC50 suramin for T. b. rhodesiense; cited from earlier work

CN1CCC[C@H]1CCNC(=O)c1cn2c3c(c(N4CCC(c5cnccn5)C4)c(F)cc3c1=O)Oc1cc3ccccc3cc1-2 (some centres unmarked) [Quarfloxin, quarfloxin]
IC50 ([1]; Trypanosoma brucei): 0.155 ± 0.009 µM
T. brucei more sensitive than human cells (selectivity range) [1]: 18-40 fold
T. brucei more sensitive than MCF10A [2]: 29 fold
IC50 ([2]; Homo sapiens, MCF-10A): 4.44 ± 3.29 µM
selectivity index for T. brucei vs MCF10A (Alamar blue) [2]: (29x)
IC50 ([3]; Homo sapiens, Fibroblast): 2.72 ± 0.17 µM
selectivity index for T. brucei vs BJ3 human fibroblasts (Incucyte) [3]: (18x)
IC50 ([4]; Homo sapiens, MCF-10A): 6.24 ± 3.87 µM
selectivity index for T. brucei vs MCF10A (Incucyte) [4]: (40x)
drug concentration that resulted in suppression of proliferative growth in T. brucei (T. brucei SM [5]): 300 nM
reversibility of inhibition of T. brucei proliferation (T. brucei SM [6]): irreversibly
VSG221 precursor transcript reduced by ([7]; 1 μM, 15 minutes): 94.5 ± 1.9%
VSG pseudogene transcript reduced by ([7]; 1 μM, 15 minutes): 92.3 ± 1.6%
pre-rRNA Precursor 1 transcript levels reduced by (primer a) ([7]; 1 μM, 15 minutes): 98.5 ± 0.66%
rRNA Precursor 2 decreased by (primer b) ([7]; 1 μM, 15 minutes): 91.3 ± 2.6%
rRNA Precursors 2 and 3 reduced by (primer pair c) ([7]; 1 μM, 15 minutes): 83.4 ± 2.1%
rRNA Precursors 2 and 3 reduced by (primer pair d) ([7]; 1 μM, 15 minutes): 89.5 ± 2.7%
Pol II derived tubulin precursor transcript level ([7]; 1 μM, fifteen minutes): 129 ± 10.3 % normal
ESB positive cells ([8]; 300 nM): 30.5 ± 5%
ESB positive cells ([8]; 1 μM): 7.5 ± 0.7%
nucleolar structure (L1C6 marker) ([8]; 3 μM): nucleoli fragmenting into multiple foci
cells with an ESB ([8]; 3 μM): No cells contained an ESB; also recorded: none of the cells had an ESB
VEX1 signal (ESB marker) ([8]; 3 μM, three hours): drastically reduced

CN(C)CCNC(=O)c1cccn2c(=O)c3cc4ccccc4cc3nc12 [BMH-21]
IC50 [1]: 0.134 ± 0.008 µM
T. brucei more sensitive than human cells (selectivity range) [1]: 3-10 fold
IC50 [2]: 0.46 ± 0.08 µM
T. brucei more sensitive than MCF10A [2]: 3.4 fold
selectivity index for T. brucei vs MCF10A (Alamar blue) [2]: (3.4x)
IC50 [3]: 1.36 ± 0.22 µM
selectivity index for T. brucei vs BJ3 human fibroblasts (Incucyte) [3]: (10x)
IC50 [4]: 0.622 ± 0.34 µM
selectivity index for T. brucei vs MCF10A (Incucyte) [4]: (4.6x)
drug concentration that resulted in suppression of proliferative growth in T. brucei (T. brucei SM [5]): 300 nM
nucleolar structure (L1C6 marker) ([8]; 3 μM): nucleoli fragmenting into multiple foci
cells with an ESB ([8]; 3 μM): 1 ± 1.4%
VEX1 signal (ESB marker) ([8]; 3 μM, three hours): drastically reduced
degradation of the RPA2 Pol I subunit [9]: we did not see evidence for degradation of the RPA2 Pol I subunit

Cc1cnc(CNC(=O)c2c(=O)c3ccc(N4CCCN(C)CC4)nc3n3c2sc2ccccc23)cn1 [CX-5461]
IC50 ([1]; Trypanosoma brucei): 0.279 ± 0.016 µM
T. brucei more sensitive than human cells (selectivity range) [1]: 25-35 fold
T. brucei more sensitive than MCF10A [2]: 25 fold
IC50 ([2]; Homo sapiens, MCF-10A): 6.89 ± 4.83 µM
selectivity index for T. brucei vs MCF10A (Alamar blue) [2]: (25x)
IC50 ([3]; Homo sapiens, Fibroblast): 9.78 ± 0.79 µM
selectivity index for T. brucei vs BJ3 human fibroblasts (Incucyte) [3]: (35x)
IC50 ([4]; Homo sapiens, MCF-10A): 7.84 ± 9.8 µM
selectivity index for T. brucei vs MCF10A (Incucyte) [4]: (28x)
drug concentration that resulted in suppression of proliferative growth in T. brucei (T. brucei SM [5]): 1000 nM
reversibility of inhibition of T. brucei proliferation (T. brucei SM [6]): irreversibly
repression of Pol I transcription ([7]; 1 μM, 15 minutes): specific knockdown of Pol I transcripts
nucleolar structure (L1C6 marker) ([8]; 3 μM): nucleoli fragmenting into multiple foci
cells with an ESB ([8]; 3 μM): 4.5 ± 0.7%
VEX1 signal (ESB marker) ([8]; 3 μM, three hours): drastically reduced

C[C@H]1c2cccc(O)c2C(=O)C2=C(O)[C@]3(O)C(=O)C(C(N)=O)=C(O)[C@@H](N(C)C)[C@@H]3[C@@H](O)[C@@H]21 [Doxycycline, doxycycline]
IC50 ([2]; Homo sapiens, MCF-10A): 50.7 ± 33.8 µM

Cc1ccc(C(=O)Nc2ccc(S(=O)(=O)O)c3cc(S(=O)(=O)O)cc(S(=O)(=O)O)c23)cc1NC(=O)c1cccc(NC(=O)Nc2cccc(C(=O)Nc3cc(C(=O)Nc4ccc(S(=O)(=O)O)c5cc(S(=O)(=O)O)cc(S(=O)(=O)O)c45)ccc3C)c2)c1 [Suramin, suramin]
IC50 ([1]; Trypanosoma brucei): 0.063 ± 0.005 µM
IC50 ([2]; Homo sapiens, MCF-10A): 1640 ± 317 µM
IC50 ([3]; Homo sapiens, Fibroblast): 890 ± 127 µM
IC50 ([4]; Homo sapiens, MCF-10A): 1260 ± 90 µM
effect on Pol I and Pol II derived precursor transcript levels ([7]; 800 nM, 15 minutes): did not lead to reduced levels of any of these transcripts
nucleolar structure (L1C6 marker) ([8]; 800 nM): did not lead to significant changes in structure of the nucleoli
effect on ESB positive cells ([8]; 800 nM, one to three hours): only a marginal reduction in ESB positive cells
ESB as visualised using epitope tagged VEX1 ([8]; 800 nM, three hours): no specific disintegration of the ESB was observed
IC50 (T. b. rhodesiense): 0.053 µM
